# Measured values reported in patent publication US10828271B2, “Method for treating pleuroperitoneal membrane cancers by locally injecting disulfiram preparation” (NUOMA (BEIJING) TECHNOLOGY CO., LTD, priority 2016, dated 2020).
# Read-outs that look alike come from different tables or passages of the source.
# Tests used:
# S180 ascites tumor cells = settings: for Formation of ascites and masses at laparotomy: three weeks after cell injection
# Experimental: S180 ascites cells were purchased from the Chinese Academy of Sciences Shanghai Cell Bank and cultured in a DMEM medium containing 10% fetal calf serum supplemented with 10 mg/ml streptomycin and 2 mmol/L L-glutamine at 37° C. under a 5% CO2 atmosphere.
# S-180 cells were injected at a rate of 2.5×10^6/animal into the abdominal cavity of male Kunming mice and the animals were randomly divided into two groups (8 animals/group). […] Drug administration was performed three times per week. The mice were weighed three times per week. Once the experiment was complete, the animals were sacrificed via cervical dislocation. The abdominal cavities of all mice were opened to observe and assess ascites formation and abdominal wall tumors.
# MSTO mesothelioma cells [1] = assay: Peritoneal MSTO mesothelioma model in CD1 nude mice; format: in vivo, mouse
# Experimental: (§2) MSTO mesothelioma cells and SKVO-3 ovarian cancer cells were cultured in a DMEM medium containing 10% fetal calf serum supplemented with 10 mg/ml streptomycin and 2 mmol/L L-glutamine at 37° C. under a 5% CO2 atmosphere.
# (§3) MSTO mesothelioma cells and SKVO-3 ovarian cancer cells were injected at a rate of 3×10^6/animal into female CD1 nude mice and animals were randomly divided into two groups (10 animals/group). […] Drug administration was performed three times per week. The mice were weighed three times per week. Once the experiment was complete, the animals were sacrificed via cervical dislocation. The abdominal cavities of all mice were opened to observe and assess ascites formation and abdominal wall tumors.
# [2] = test system: SKVO-3 ovarian cancer cells; assay: Peritoneal ovarian cancer model in CD1 nude mice; format: in vivo, mouse
# Experimental: as §2, §3
# [3] = absorbed disulfiram in the bloodstream; cited from earlier work
# [4] = oral dose of 500 mg; cited from earlier work
# MSTO mesothelioma cells [5] = assay: MTT cell survival assay, MSTO mesothelioma cells; format: cell-based, human; settings: for IC50: MSTO cells, 3 days incubation, MTT, read-out: IC50s (nM), inhibition of mesothelioma growth, MSTO; for Synergy index CI at ED50, MSTO / Synergy index CI at ED75, MSTO / Synergy index CI at ED90, MSTO: named drug combined with DS + Cu
# Experimental: (§1) Separate incubations were performed with pemetrexed, DS/Cu (disulfiram/copper gluconate) and cisplatin for 3 days. Cell survival was determined via an MTT assay.
# 2591 mesothelioma cells = assay: MTT cell survival assay, 2591 mesothelioma cells; format: cell-based, human; settings: for IC50: 2591 cells, 3 days incubation, MTT, read-out: IC50s (nM), inhibition of mesothelioma growth, 2591; for Synergy index CI at ED50, 2591 / Synergy index CI at ED75, 2591 / Synergy index CI at ED90, 2591: named drug combined with DS + Cu
# Experimental: as §1
# [6] = test system: A2780 ovarian cancer cells; assay: Cell survival assay, A2780 ovarian cancer cells; format: cell-based, human
# [7] = test system: SKOV-3 ovarian cancer cells; assay: Cell survival assay, SKOV-3 ovarian cancer cells; format: cell-based, human; settings: cisplatin (CDDP) combined with DS + Cu
# Ju77 mesothelioma cells = assay: MTT cell survival assay, Ju77 mesothelioma cells; format: cell-based, human; settings: for IC50: Ju77 cells, 3 days incubation, MTT, read-out: IC50s (nM), inhibition of mesothelioma growth, Ju77; for Synergy index CI at ED50, Ju77 / Synergy index CI at ED75, Ju77 / Synergy index CI at ED90, Ju77: named drug combined with DS + Cu
# Experimental: as §1
# E58 mesothelioma cells = assay: MTT cell survival assay, E58 mesothelioma cells; format: cell-based, human; settings: for Synergy index CI at ED50, E58 / Synergy index CI at ED75, E58 / Synergy index CI at ED90, E58: named drug combined with DS + Cu
# Experimental: as §1
# [8] = Anticancer activity of disulfiram metabolites (unpublished data); settings: unpublished data of the applicant
# [9] = disulfiram 5 mg/kg i.p. + CuGlu 5 mg/kg oral, three times per week, Day 21
# [10] = disulfiram 40 μg/animal i.p. + CuGlu oral, as of Day 90
molecule,measurement,setting,value
CCN(CC)C(=S)SSC(=S)N(CC)CC [disulfiram],Mean ascites volume per mouse,S180 ascites tumor cells; [9],0 ml per mouse
same,Number of cancer nodules per mouse,S180 ascites tumor cells; [9],0 nodules per mouse
same,Formation of ascites and masses at laparotomy,S180 ascites tumor cells; disulfiram 5 mg/kg i.p. + CuGlu 5 mg/kg oral,no formation of ascites or masses was observed
same,Formation of ascites and masses at laparotomy,"S180 ascites tumor cells; disulfiram 5 mg/kg i.p. + CuGlu 5 mg/kg oral, listed as DS",no formation of ascites or tumor nodules
same,Effect on peritoneal metastasis,"S180 ascites tumor cells; disulfiram 5 mg/kg i.p. with oral copper gluconate, S180 tumor-bearing mice",completely eliminate the animals' peritoneal metastasis
same,Body weight compared with control group,S180 ascites tumor cells; one week after injection of the cells,significantly lower than that of mice in the control group
same,"Survival rate, mesothelioma mice","MSTO mesothelioma cells [1]; disulfiram 40 μg/animal (2 mg/kg) i.p. + CuGlu 5 mg/kg oral, Day 90",60%
same,"Ascites, mesothelioma mice",MSTO mesothelioma cells [1]; [10],did not reveal any ascites
same,"Cancer nodules / masses, mesothelioma mice",MSTO mesothelioma cells [1]; [10],only a small number of masses had formed
same,"Survival rate, ovarian cancer mice","[2]; disulfiram 40 μg/animal (2 mg/kg) i.p. + CuGlu 5 mg/kg oral, Day 60",90%
same,"Cancer nodules / masses, ovarian cancer mice","[2]; disulfiram 40 μg/animal i.p. + CuGlu oral, Day 60",only a small number of masses had formed
same,"Ascites, ovarian cancer mice","[2]; disulfiram 40 μg/animal i.p. + CuGlu oral, as of Day 60",did not reveal any ascites
same,Half-life of reduction by the glutathione reductase system in red blood cells,[3],4 min
same,Blood concentration,[4],below the detection limit
"[NH2][Pt]([NH2])([Cl])[Cl] [CDDP, cisplatin]",IC50,MSTO mesothelioma cells [5],4590 nM
same,"Synergy index CI at ED50, MSTO",MSTO mesothelioma cells [5],0.567
same,"Synergy index CI at ED75, MSTO",MSTO mesothelioma cells [5],0.320
same,"Synergy index CI at ED90, MSTO",MSTO mesothelioma cells [5],0.209
same,IC50,2591 mesothelioma cells,9160 nM
same,"Synergy index CI at ED50, 2591",2591 mesothelioma cells,0.777
same,"Synergy index CI at ED75, 2591",2591 mesothelioma cells,0.868
same,"Synergy index CI at ED90, 2591",2591 mesothelioma cells,1.170
same,IC50,"[6]; A2780 cells, 3 days incubation, read-out: IC50s (nM), ovarian cancer cells, A2780",4590 nM
same,"Synergy index CI at ED50, A2780","[6]; cisplatin (CDDP) combined with DS + Cu, ED50, A2780",0.567
same,"Synergy index CI at ED75, A2780","[6]; cisplatin (CDDP) combined with DS + Cu, ED75, A2780",0.320
same,"Synergy index CI at ED90, A2780","[6]; cisplatin (CDDP) combined with DS + Cu, ED90, A2780",0.209
same,"Synergy index CI at ED50, SKOV-3",[7]; ED50,0.389
same,"Synergy index CI at ED75, SKOV-3",[7]; ED75,0.346
same,"Synergy index CI at ED90, SKOV-3",[7]; ED90,0.319
same,IC50,Ju77 mesothelioma cells,8790 nM
same,"Synergy index CI at ED50, Ju77",Ju77 mesothelioma cells,0.389
same,"Synergy index CI at ED75, Ju77",Ju77 mesothelioma cells,0.346
same,"Synergy index CI at ED90, Ju77",Ju77 mesothelioma cells,0.319
same,"Synergy index CI at ED50, E58",E58 mesothelioma cells,0.385
same,"Synergy index CI at ED75, E58",E58 mesothelioma cells,0.355
same,"Synergy index CI at ED90, E58",E58 mesothelioma cells,0.449
CCN(CC)C(=S)SC1OC(C(=O)O)C(O)C(O)C1O (stereo not shown) [glucuronic acid DDC],Anticancer activity,[8],completely lack any anticancer activity
methylated disulfiram,Anticancer activity,[8],completely loses its anticancer activity
"Nc1nc2[nH]cc(CCc3ccc(C(=O)N[C@@H](CCC(=O)O)C(=O)O)cc3)c2c(=O)[nH]1 [PMTX, pemetrexed]",IC50,"MSTO mesothelioma cells [5]; Homo sapiens, 72 h",920 nM
same,"Synergy index CI at ED50, MSTO",MSTO mesothelioma cells [5],0.399
same,"Synergy index CI at ED75, MSTO",MSTO mesothelioma cells [5],0.196
same,"Synergy index CI at ED90, MSTO",MSTO mesothelioma cells [5],0.102
same,IC50,"2591 mesothelioma cells; Homo sapiens, 72 h",> 1000 nM
same,"Synergy index CI at ED50, 2591",2591 mesothelioma cells,0.341
same,"Synergy index CI at ED75, 2591",2591 mesothelioma cells,0.253
same,"Synergy index CI at ED90, 2591",2591 mesothelioma cells,0.603
same,IC50,"Ju77 mesothelioma cells; Homo sapiens, 72 h",> 1000 nM
same,"Synergy index CI at ED50, Ju77",Ju77 mesothelioma cells,0.308
same,"Synergy index CI at ED75, Ju77",Ju77 mesothelioma cells,0.431
same,"Synergy index CI at ED90, Ju77",Ju77 mesothelioma cells,0.603
same,IC50,"E58 mesothelioma cells; Homo sapiens, 72 h, E58 cells, 3 days incubation, MTT, read-out: IC50s (nM), inhibition of mesothelioma growth, E58",> 1000 nM
same,"Synergy index CI at ED50, E58",E58 mesothelioma cells,0.383
same,"Synergy index CI at ED75, E58",E58 mesothelioma cells,0.384
same,"Synergy index CI at ED90, E58",E58 mesothelioma cells,0.503
CCN(CC)C(=S)SC [methyl DDC],Anticancer activity,[8],completely lack any anticancer activity
